Reference: patent US10442835B2, “Water-soluble rapamycin derivatives” (Zhejiang Hisun Pharmaceutical Co., Ltd., priority 2016, dated 2019)

How the values were obtained:
[1] = In vivo pharmacokinetic study in rats; parameters: species or system SD rats
Procedure: To further study the in vivo pharmacokinetic characteristics of compound I-1 in rats, compound I-1 was administrated to SD rats via intravenous injection. The in vivo pharmacokinetic characteristics and bioavailability of everolimus released in rats were measured, and compared with the pharmacokinetic characteristics of everolimus via oral administration.
Then the animals were observed when blood was sampled every time until the last sample was collected.

[2] = Test for solubility in water; assay type: physicochemical; details: water, thermodynamic from solid
Procedure: The experiments herein can measure the dissolution profile in water of the compounds according to the present invention.
To a 25 ml volumetric flask, 25 mg everolimus was added, and diluted with acetonitrile to volume. The mixture was shaken till all the solid dissolved, obtaining 1 mg/mL everolimus solution in acetonitrile.
1 mg/mL everolimus solution in acetonitrile was added to a 10 ml volumetric flask, and was diluted with acetonitrile by 2 times, 10 times, 100 times and 1000 times, so as to obtain everolimus solutions in acetonitrile with a concentration of 0.5 mg/mL, 0.1 mg/mL, 0.01 mg/mL and 0.001 mg/mL, respectively.
Each of the three mixtures was shaken till the solid in the volumetric flask stopped to dissolve. Before analyzed by HPLC, 1 mL of each solution was filtrated via a 0.22 μm filter. The solubility of the compounds was calculated from the standard curve using the peak area of the main peak obtained.
Based on the same study method, comparisons of the solubility between sirolimus/temsirolimus and the compounds modified by glutathione are carried out, respectively.

[3] = Drug release in serum by prodrugs; assay type: in vitro ADME, rat; details: 37° C.; HPLC at 10 min to 4 h
Procedure: The effects of the compounds according to the present invention as prodrugs of rapamycin can be confirmed by standard operational procedures of pharmacological experiments.
10 mL ZnCl2 solution with a concentration of 0.10 mol/L was prepared for use.
1.5 mL blood from ophthalmic artery of rats was injected into a 1.5 mL centrifuge tube and was centrifuged at 12000 rad/min for 10 min. 300 μl supernate (serum) was pipetted into a 1.5 mL centrifuge tube. 7 samples of the serum were prepared for use with the same method.
As a blank control, 100 μl water was added to centrifuge tube No. 7. Then the tubes were incubated at 37° C. in an incubator.
300 μl acetonitrile and 300 μl ZnCl2 solution of 0.1 mol/L were added to each of centrifuge tubes No. 1-6 at 10 min, 0.5 h, 1 h, 2 h, 3 h, and 4 h, respectively. The tubes were vortexed homogeneously for 5 min, so as to end the action of the enzyme in the serum on the compounds. 300 μl acetonitrile and 300 μl ZnCl2 solution of 0.1 M were added to the centrifuge tube No. 7 at 4 h, which was then vortexed homogeneously for 5 min.
Each of the centrifuge tubes No. 1-7 was centrifuged at 12000 rad/min for 15 min. The protein in the serum was removed via centrifuging.

[4] = Body weight of OS-RC-2 tumor nude mice
Procedure: The experiment was terminated and tumors were stripped and weighted. The tumor inhibition rate was calculated.
The body weight can indirectly reflect the toxicity of the drugs.

[5] = Sprague-Dawley (SD), rat, everolimus in plasma, everolimus PO 10 mg/kg, male SD rats
[6] = Day 5, G4 compound I-1 8.12 mg/kg ig 3×/qw
[7] = Day 5, G5 compound I-1 2.0 mg/kg iv 3×/qw
[8] = Day 5, G6 compound I-1 8.12 mg/kg iv 3×/qw
[9] = Day 5, G7 compound I-1 32.7 mg/kg iv 1×/qw
[10] = Day 8, G4 compound I-1 8.12 mg/kg ig 3×/qw
[11] = Day 8, G5 compound I-1 2.0 mg/kg iv 3×/qw
[12] = Day 8, G6 compound I-1 8.12 mg/kg iv 3×/qw
[13] = Day 8, G7 compound I-1 32.7 mg/kg iv 1×/qw
[14] = Day 12, G4 compound I-1 8.12 mg/kg ig 3×/qw
[15] = Day 12, G5 compound I-1 2.0 mg/kg iv 3×/qw
[16] = Day 12, G6 compound I-1 8.12 mg/kg iv 3×/qw
[17] = Day 12, G7 compound I-1 32.7 mg/kg iv 1×/qw
[18] = Day 15, G4 compound I-1 8.12 mg/kg ig 3×/qw
[19] = Day 15, G5 compound I-1 2.0 mg/kg iv 3×/qw
[20] = Day 15, G6 compound I-1 8.12 mg/kg iv 3×/qw
[21] = Day 15, G7 compound I-1 32.7 mg/kg iv 1×/qw
[22] = Day 19, G4 compound I-1 8.12 mg/kg ig 3×/qw
[23] = Day 19, G5 compound I-1 2.0 mg/kg iv 3×/qw
[24] = Day 19, G6 compound I-1 8.12 mg/kg iv 3×/qw
[25] = Day 19, G7 compound I-1 32.7 mg/kg iv 1×/qw
[26] = Day 22, G4 compound I-1 8.12 mg/kg ig 3×/qw
[27] = Day 22, G5 compound I-1 2.0 mg/kg iv 3×/qw
[28] = Day 22, G6 compound I-1 8.12 mg/kg iv 3×/qw
[29] = Day 22, G7 compound I-1 32.7 mg/kg iv 1×/qw
[30] = Day 26, G4 compound I-1 8.12 mg/kg ig 3×/qw
[31] = Day 26, G5 compound I-1 2.0 mg/kg iv 3×/qw
[32] = Day 26, G6 compound I-1 8.12 mg/kg iv 3×/qw
[33] = Day 26, G7 compound I-1 32.7 mg/kg iv 1×/qw
[34] = Day 29, G4 compound I-1 8.12 mg/kg ig 3×/qw
[35] = Day 29, G5 compound I-1 2.0 mg/kg iv 3×/qw
[36] = Day 29, G6 compound I-1 8.12 mg/kg iv 3×/qw
[37] = Day 29, G7 compound I-1 32.7 mg/kg iv 1×/qw
[38] = Day 32, G4 compound I-1 8.12 mg/kg ig 3×/qw
[39] = Day 32, G5 compound I-1 2.0 mg/kg iv 3×/qw
[40] = Day 32, G6 compound I-1 8.12 mg/kg iv 3×/qw
[41] = Day 32, G7 compound I-1 32.7 mg/kg iv 1×/qw

Compound: CO[C@H]1C[C@@H]2CC[C@@H](C)[C@@](O)(O2)C(=O)C(=O)N2CCCC[C@H]2C(=O)O[C@H]([C@H](C)C[C@@H]2CC[C@@H](OCCO)[C@H](OC)C2)CC(=O)[C@H](C)/C=C(\C)[C@@H](O)[C@@H](OC)C(=O)[C@H](C)C[C@H](C)/C=C/C=C/C=C/1C [Everolimus, reference compound]
- concentration at 3 h ([1]; Sprague-Dawley (SD), rat, plasma, 3 h, oral administration of everolimus 10.000 mg/kg, male SD rats): 0.0643 µg/mL
- concentration at 4 h ([1]; Sprague-Dawley (SD), rat, plasma, 4 h, oral administration of everolimus 10.000 mg/kg, male SD rats): 0.0614 µg/mL
- concentration at 6 h ([1]; Sprague-Dawley (SD), rat, plasma, 6 h, oral administration of everolimus 10.000 mg/kg, male SD rats): 0.0323 µg/mL
- AUC(0-inf) [1, 5]: 0.454 µg·h/mL
- AUC(0-t) [1, 5]: 0.454 µg·h/mL
- Cmax [1, 5]: 0.126 µg/mL
- Tmax [1, 5]: 1.91 h
- half-life [1, 5]: 2.2 h
- MRT ([1]; Sprague-Dawley (SD), rat, everolimus in plasma, everolimus PO 10 mg/kg, male SD rats, read-out: MRT (mean residence time)): 3.17 h
- AUC Extr ([1]; everolimus in plasma, everolimus PO 10 mg/kg, male SD rats): 6.90%
- concentration at 0 h ([1]; rat, plasma, 0 h, oral administration of everolimus 10.000 mg/kg, male SD rats): 0 µg/mL
- concentration at 0.25 h ([1]; rat, plasma, 0.25 h, oral administration of everolimus 10.000 mg/kg, male SD rats): 0.0173 µg/mL
- concentration at 0.5 h ([1]; rat, plasma, 0.5 h, oral administration of everolimus 10.000 mg/kg, male SD rats): 0.0999 µg/mL
- concentration at 1 h ([1]; rat, plasma, 1 h, oral administration of everolimus 10.000 mg/kg, male SD rats): 0.0991 µg/mL
- concentration at 1.5 h ([1]; rat, plasma, 1.5 h, oral administration of everolimus 10.000 mg/kg, male SD rats): 0.0904 µg/mL
- concentration at 2 h ([1]; rat, plasma, 2 h, oral administration of everolimus 10.000 mg/kg, male SD rats): 0.0697 µg/mL
- concentration at 8 h ([1]; rat, plasma, 8 h, oral administration of everolimus 10.000 mg/kg, male SD rats): 0.0163 µg/mL
- concentration at 24 h ([1]; rat, plasma, 24 h, oral administration of everolimus 10.000 mg/kg, male SD rats): 0.0022 µg/mL
- area under the curve (AUC) of plasma concentration of everolimus vs. time ([1]; rats orally administrated with everolimus 10 mg/Kg): about 450
- solubility [2]: < 1 µg/mL

Compound: CO[C@H]1C[C@@H]2CC[C@@H](C)[C@@](O)(O2)C(=O)C(=O)N2CCCC[C@H]2C(=O)OC([C@H](C)C[C@@H]2CC[C@@H](OCCOC(=O)CSC[C@H](NC(=O)CC[C@H](N)C(=O)O)C(=O)NCC(=O)O)[C@H](OC)C2)CC(=O)[C@H](C)/C=C(\C)[C@@H](O)[C@@H](OC)C(=O)[C@H](C)C[C@@H](C)\C=C/C=C/C=C/1C (some centres unmarked) [Compound I-1]
- stability after dissolving in normal saline: the resulted solution is stable
- release of everolimus in rat's serum [3]: slowly release everolimus
- Body Weight, mean value ([4]; Day 1, G4 compound I-1 8.12 mg/kg ig 3×/qw): 21.04 g
- Body Weight, mean value ([4]; Day 1, G5 compound I-1 2.0 mg/kg iv 3×/qw): 20.67 g
- Body Weight, mean value ([4]; Day 1, G6 compound I-1 8.12 mg/kg iv 3×/qw): 21.39 g
- Body Weight, mean value ([4]; Day 1, G7 compound I-1 32.7 mg/kg iv 1×/qw): 21.28 g
- Body Weight, mean value [4, 6]: 20.27 g
- Decrease rate of body weight [4, 6]: 3.7%
- Body Weight, mean value [4, 7]: 19.27 g
- Decrease rate of body weight [4, 7]: 6.8%
- Body Weight, mean value [4, 8]: 20.46 g
- Decrease rate of body weight [4, 8]: 4.4%
- Body Weight, mean value [4, 9]: 19.97 g
- Decrease rate of body weight [4, 9]: 6.2%
- Body Weight, mean value [4, 10]: 20.04 g
- Decrease rate of body weight [4, 10]: 4.8%
- Body Weight, mean value [4, 11]: 18.76 g
- Decrease rate of body weight [4, 11]: 9.2%
- Body Weight, mean value [4, 12]: 21.16 g
- Decrease rate of body weight [4, 12]: 1.1%
- Body Weight, mean value [4, 13]: 20.14 g
- Decrease rate of body weight [4, 13]: 5.3%
- Body Weight, mean value [4, 14]: 19.62 g
- Decrease rate of body weight [4, 14]: 6.7%
- Body Weight, mean value [4, 15]: 18.71 g
- Decrease rate of body weight [4, 15]: 9.5%
- Body Weight, mean value [4, 16]: 21.25 g
- Decrease rate of body weight [4, 16]: 0.7%
- Body Weight, mean value [4, 17]: 19.93 g
- Decrease rate of body weight [4, 17]: 6.3%
- Body Weight, mean value [4, 18]: 19.29 g
- Decrease rate of body weight [4, 18]: 8.3%
- Body Weight, mean value [4, 19]: 18.18 g
- Decrease rate of body weight [4, 19]: 12.0%
- Body Weight, mean value [4, 20]: 20.71 g
- Decrease rate of body weight [4, 20]: 3.2%
- Body Weight, mean value [4, 21]: 19.38 g
- Decrease rate of body weight [4, 21]: 8.9%
- Body Weight, mean value [4, 22]: 19.19 g
- Decrease rate of body weight [4, 22]: 8.8%
- Body Weight, mean value [4, 23]: 18.30 g
- Decrease rate of body weight [4, 23]: 11.5%
- Body Weight, mean value [4, 24]: 19.67 g
- Decrease rate of body weight [4, 24]: 8.0%
- Body Weight, mean value [4, 25]: 19.12 g
- Decrease rate of body weight [4, 25]: 10.2%
- Body Weight, mean value [4, 26]: 19.19 g
- Decrease rate of body weight [4, 26]: 8.8%
- Body Weight, mean value [4, 27]: 18.30 g
- Decrease rate of body weight [4, 27]: 11.5%
- Body Weight, mean value [4, 28]: 19.67 g
- Decrease rate of body weight [4, 28]: 8.0%
- Body Weight, mean value [4, 29]: 19.12 g
- Decrease rate of body weight [4, 29]: 10.2%
- Body Weight, mean value [4, 30]: 19.65 g
- Decrease rate of body weight [4, 30]: 6.6%
- Body Weight, mean value [4, 31]: 17.95 g
- Decrease rate of body weight [4, 31]: 13.1%
- Body Weight, mean value [4, 32]: 19.31 g
- Decrease rate of body weight [4, 32]: 9.7%
- Body Weight, mean value [4, 33]: 19.12 g
- Decrease rate of body weight [4, 33]: 10.2%
- Body Weight, mean value [4, 34]: 20.02 g
- Decrease rate of body weight [4, 34]: 4.8%
- Body Weight, mean value [4, 35]: 18.29 g
- Decrease rate of body weight [4, 35]: 11.5%
- Body Weight, mean value [4, 36]: 19.04 g
- Decrease rate of body weight [4, 36]: 10.5%
- Body Weight, mean value [4, 37]: 19.04 g
- Decrease rate of body weight [4, 37]: 10.5%
- Body Weight, mean value [4, 38]: 19.87 g
- Decrease rate of body weight [4, 38]: 5.6%
- Body Weight, mean value [4, 39]: 18.12 g
- Decrease rate of body weight [4, 39]: 12.3%
- Body Weight, mean value [4, 40]: 18.80 g
- Decrease rate of body weight [4, 40]: 11.7%
- Body Weight, mean value [4, 41]: 18.94 g
- Decrease rate of body weight [4, 41]: 10.7%
